Experimental data published in ChEMBL document CHEMBL1133048, “A QSAR study investigating the effect of L-alanine ester variation on the anti-HIV activity of some phosphoramidate derivatives of d4T” (2000).

Tests used:
CCRF-CEM [1] = test: Effective concentration required to inhibit 50% of HIV-2 induced giant cell formation in CEM cell cultures; assay type: functional, Homo sapiens
CCRF-CEM [2] = test: Cytotoxic concentration required to inhibit CEM cell proliferation by 50%; assay type: functional; conditions: Homo sapiens
CCRF-CEM [3] = test: Effective concentration required to inhibit 50% of HIV-1 induced giant cell formation in CEM cell cultures; assay type: functional, Homo sapiens

| SMILES | Log 1/EC50 (CCRF-CEM [1]) | CC50 (CCRF-CEM [2]) [µM] | Log 1/EC50 (CCRF-CEM [3]) |
| --- | --- | --- | --- |
| CCCOC(=O)C(C)NP(=O)(OCC1C=CC(n2cc(C)c(=O)[nH]c2=O)O1)Oc1ccccc1 (stereo not drawn) | 1.1 | 40 | 1.33 |
| Cc1cn(C2C=CC(COP(=O)(NC(C)C(=O)OCCc3ccccc3)Oc3ccccc3)O2)c(=O)[nH]c1=O (stereo not drawn) | 0.155 | 250 | 0.071 |
| CCCCCOC(=O)C(C)NP(=O)(OCC1C=CC(n2cc(C)c(=O)[nH]c2=O)O1)Oc1ccccc1 (stereo not drawn) | 1.1 | 40.5 | 1.35 |
| Cc1cn(C2C=CC(COP(=O)(NC(C)C(=O)Oc3ccccc3)Oc3ccccc3)O2)c(=O)[nH]c1=O (stereo not drawn) | 1.1 |  | 1.6 |
| COC(=O)C(C)NP(=O)(OC[C@@H]1C=C[C@H](n2cc(C)c(=O)[nH]c2=O)O1)Oc1ccccc1 (stereo partly drawn) | 1.13 | 100 | 1.13 |
| Cc1cn(C2C=CC(COP(=O)(NC(C)C(=O)OC3CCCCC3)Oc3ccccc3)O2)c(=O)[nH]c1=O (stereo not drawn) | 1.13 | 51.4 | 1.19 |
| Cc1cn(C2C=CC(COP(=O)(NC(C)C(=O)OCC3CCCCC3)Oc3ccccc3)O2)c(=O)[nH]c1=O (stereo not drawn) |  | 12.1 | 1.4 |
| Cc1cn(C2C=CC(COP(=O)(NC(C)C(=O)OCc3cccc4ccccc34)Oc3ccccc3)O2)c(=O)[nH]c1=O (stereo not drawn) | 1.22 | 21.6 | 1.52 |
| Cc1cn(C2C=CC(COP(=O)(NC(C)C(=O)OCC(C)(C)C)Oc3ccccc3)O2)c(=O)[nH]c1=O (stereo not drawn) | 1.35 | 43.5 | 1.3 |
| CCCCCCOC(=O)C(C)NP(=O)(OCC1C=CC(n2cc(C)c(=O)[nH]c2=O)O1)Oc1ccccc1 (stereo not drawn) | 1.26 | 48 | 1.22 |
| CCCCOC(=O)C(C)NP(=O)(OCC1C=CC(n2cc(C)c(=O)[nH]c2=O)O1)Oc1ccccc1 (stereo not drawn) |  | 60 |  |
| CCOC(=O)C(C)NP(=O)(OCC1C=CC(n2cc(C)c(=O)[nH]c2=O)O1)Oc1ccccc1 (stereo not drawn) | 1.16 | 55 | 1 |
| Cc1cn(C2C=CC(COP(=O)(NC(C)C(=O)OCCCc3ccccc3)Oc3ccccc3)O2)c(=O)[nH]c1=O (stereo not drawn) | -0.217 | 250 | 0 |
| Cc1cn(C2C=CC(COP(=O)(NC(C)C(=O)OC(C)(C)C)Oc3ccccc3)O2)c(=O)[nH]c1=O (stereo not drawn) | -0.041 | 250 | 0.071 |
